Results taken from patent US6967196B1, “Sulfonamide compounds and uses thereof” (Bristol-Myers Squibb Company, priority 1999, dated 2005).
Structures can show the parent of a compound that is named as a salt. Where two headings read alike, the source gives them in different places.

Tested on: amyloid β production in transfected H4 (human neuroglioma) cells stably expressing APP constructs
Assay: In vitro cell-based assay of inhibitors of amyloid β production (ELISA)
In short: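 H4 neuroglioma cells stably expressing APP constructs were dosed in fresh medium, screened initially at 10-100 μM, and incubated ~16 h. Medium Aβ was measured by ELISA with C-terminal-epitope capture and N-terminal detection antibodies, quantified from a standard curve, with dose-response testing of actives.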

[1] = Homo sapiens, 16 h, transfected H4 cells stably expressing APP, approximately 16 hours incubation, amyloid β in medium by ELISA, read-out: ACTIVITY (IC50, inhibition of amyloid β production)
[2] = Homo sapiens, 16 h, transfected H4 cells stably expressing APP constructs, approximately 16 hours incubation, amyloid β in medium by ELISA, read-out: ACTIVITY (IC50, inhibition of amyloid β production)
[3] = Homo sapiens, 16 h, transfected H4 cells expressing APP, approximately 16 hours incubation, amyloid β in medium by ELISA, read-out: ACTIVITY (IC50, inhibition of amyloid β production)
[4] = transfected H4 cells stably expressing APP, approximately 16 hours incubation, amyloid β in medium by ELISA, read-out: ACTIVITY (IC50, inhibition of amyloid β production)
[5] = Table B, transfected H4 cells stably expressing APP, approximately 16 hours incubation, amyloid β in medium by ELISA, read-out: ACTIVITY (inhibitory concentration IC50, inhibition of amyloid β production)
[6] = transfected H4 cells stably expressing APP, approx. 16 h incubation, amyloid β in medium by ELISA, read-out: ACTIVITY (IC50, inhibition of amyloid β production)
[7] = transfected H4 cells stably expressing APP constructs, approximately 16 hours incubation, amyloid β in medium by ELISA, read-out: ACTIVITY (IC50, inhibition of amyloid β production)

`O=S(=O)(c1ccc(Cl)cc1)N(Cc1ccccc1OCCCN1CCCCC1)c1cccc(Cl)c1` [Example 235, 4-Chloro-N-(3-chlorophenyl)-N-{2-[3-(1-piperidinyl)propoxy]benzyl}benzenesulfonamide Hydrochloride] showed an IC50 (read-out: ACTIVITY (inhibitory concentration IC50, inhibition of amyloid β production)) of 25 to 50 nM.

In the case of `C[C@H](CCCNC(=O)Oc1ccccc1)N(c1cc(Cl)ccc1Cl)S(=O)(=O)c1ccc(Cl)cc1` [Example 1154, 4-chloro-N-(2,5-dichlorophenyl)-N-[4-[[(phenoxy)carbonyl]amino]-1-methylbutyl]benzenesulfonamide], the IC50 (Homo sapiens, transfected H4 cells stably expressing APP constructs, approximately 16 hours incubation, amyloid β in medium by ELISA, read-out: ACTIVITY (IC50, inhibition of amyloid β production)) is reported as 100 to 500 nM.

`CNC(=O)COc1ccccc1C(C)N(c1cc(F)ccc1F)S(=O)(=O)c1ccc(Cl)cc1` (stereo not shown) [Example 381, [2-(1-{[(4-Chlorophenyl)sulfonyl]-2,5-difluoroanilino}ethyl)phenoxy]-N-methylacetamide] gave an IC50 (transfected H4 cells stably expressing APP, approximately 16 hours incubation, amyloid β in medium by ELISA, Table B, read-out: ACTIVITY (IC50, inhibition of amyloid β production)) of 50 to 100 nM.

For `O=S(=O)(c1ccc(Cl)cc1)N(Cc1ccccc1OCCCN1CCCCC1)c1cc(Cl)cc(Cl)c1` [Example 816, 4-chloro-N-(3,5-dichlorophenyl)-N-{2-[3-(1-piperidinyl)propoxy]benzyl}benzenesulfonamide hydrochloride], the IC50 [1] was 100 to 500 nM.

In the case of `C[C@H](CCCS(=O)(=O)N(C)C)N(c1cc(F)ccc1F)S(=O)(=O)c1ccc(Cl)cc1` [Example 1206, 4-chloro-N-[2,5-difluorophenyl]-N-[4-[(dimethylamino)sulfonyl]-1(R)-methylbutyl]benzenesulfonamide], the IC50 [2] is reported as ≤ 25 nM.

`C[C@H](C(=O)NCCc1ccncc1)N(c1cc(Cl)ccc1F)S(=O)(=O)c1ccc(Cl)cc1` [Example 1304] was tested, and the IC50 [3] was 100 to 500 nM.

For “4-chloro-N-{3-[2-({[(4-chlorophenyl)sulfonyl]-2,5-difluoroanilino}methyl)phenoxy]propyl}-N-methylbenzamide [Example 970]”, the IC50 [4] was > 500 nM.

`O=S(=O)(c1ccc(Cl)cc1)N(Cc1ccccc1OCCCCN1CCCCC1)c1ccccc1` [Example 977, 4-chloro-N-phenyl-N-{2-[4-(1-piperidinyl)butoxy]benzyl}benzenesulfonamide hydrochloride] was tested, and the IC50 [1] was > 500 nM.

`O=S(=O)(Cc1ccccc1)N(Cc1ccccc1OCCCN1CCCCC1)c1cc(Cl)ccc1Cl` [Example 261, N-(2,5-dichlorophenyl)(phenyl)-N-{2-[3-(1-piperidinyl)propoxy]benzyl}methanesulfonamide Hydrochloride] showed an IC50 [5] of 25 to 50 nM.

For `C[C@H](COC(=O)NC(C)(C)C)N(c1cc(Cl)ccc1CO)S(=O)(=O)c1ccc(Cl)cc1` [Example 1282], the IC50 [3] was ≤ 25 nM.

`O=S(=O)(c1ccc(Cl)cc1)N(Cc1ccccc1OCCCN1CCCCC1)c1ccccc1Br` [Example 866, N-(2-bromophenyl)-4-chloro-N-{2-[3-(1-piperidinyl)propoxy]benzyl}benzenesulfonamide hydrochloride] was tested, and the IC50 [1] was 100 to 500 nM.

With `C[C@H](C(=O)N(CCN)c1ccccc1)N(c1cc(Cl)ccc1F)S(=O)(=O)c1ccc(Cl)cc1` [Example 1329] the IC50 [3] was > 500 nM.

`CN(CCCOc1ccccc1CN(c1cc(F)ccc1F)S(=O)(=O)c1ccc(Cl)cc1)C(=O)c1cc([N+](=O)[O-])cc([N+](=O)[O-])c1` [Example 958, N-{3-[2-({[(4-chlorophenyl)sulfonyl]-2,5-difluoroanilino}methyl)phenoxy]propyl}-N-methyl-3,5-dinitrobenzamide] was tested, and the IC50 [4] was > 500 nM.

`O=S(=O)(c1ccc(Cl)cc1)N(Cc1ccccc1CCCCO)c1ccccc1` [Example 1016, 4-chloro-N-[2-(4-hydroxybutyl)benzyl]-N-phenylbenzenesulfonamide] was tested, and the IC50 [1] was > 500 nM.

In the case of `CNS(=O)(=O)CCC[C@@H](C)N(c1cc(Cl)ccc1Cl)S(=O)(=O)c1ccc(Cl)cc1` [Example 1199, 4-chloro-N-[2,5-dichlorophenyl]-N-[4-[(methylamino)sulfonyl]-1(R)-methylbutyl]benzenesulfonamide], the IC50 [2] is reported as ≤ 25 nM.

“N-{3-[2-(1-{[(4-chlorophenyl)sulfonyl]-2,5-difluoroanilino}ethyl)phenoxy]propyl}-3-fluoro-N-methylbenzamide [Example 699]” was tested, and the IC50 [6] was 100 to 500 nM.

With `COc1cc(CNC(=O)[C@@H](C)N(c2cc(Cl)ccc2F)S(=O)(=O)c2ccc(Cl)cc2)cc(OC)c1OC` [Example 1362] the IC50 [3] was > 500 nM.

In the case of `CC(C)[S+]([O-])CCC[C@@H](C)N(c1cc(Cl)ccc1Cl)S(=O)(=O)c1ccc(Cl)cc1` (stereo partly shown) [Example 1169], the IC50 [7] is reported as ≤ 25 nM.

In the case of `O=S(=O)(c1ccc(Cl)cc1)N(Cc1ccccc1OCCCn1ccnc1)c1ccccc1` [Example 882, 4-chloro-N-{2-[3-(1H-imidazol-1-yl)propoxy]benzyl}-N-phenylbenzenesulfonamide hydrochloride], the IC50 [1] is reported as > 500 nM.

`O=C(C1CC1c1ccccc1)N1CCCCC1CCOc1ccccc1CN(c1cc(F)ccc1F)S(=O)(=O)c1ccc(Cl)cc1` (stereo not shown) [Example 780, 4-chloro-N-(2,5-difluorophenyl)-N-[2-(2-{1-[(2-phenylcyclopropyl)carbonyl]-2-piperidinyl}ethoxy)benzyl]benzenesulfonamide] was tested, and the IC50 (Homo sapiens, 16 h, transfected H4 cells stably expressing APP, approx. 16 h incubation, amyloid β in medium by ELISA, read-out: ACTIVITY (IC50, inhibition of amyloid β production)) was 100 to 500 nM.

`O=S(=O)(c1ccccc1)N(Cc1ccccc1CCCN1CCCCC1)c1ccccc1` [Example 1031, N-phenyl-N-{2-[3-(1-piperidinyl)propyl]benzyl}benzenesulfonamide] was tested, and the IC50 [1] was > 500 nM.

`CC(c1ccccc1OCCCN(C)C(=O)c1ccc(-c2ccccc2)cc1)N(c1cc(F)ccc1F)S(=O)(=O)c1ccc(Cl)cc1` (stereo not shown) [Example 840, N-{3-[2-(1-{[(4-chlorophenyl)sulfonyl]-2,5-difluoroanilino}ethyl)phenoxy]propyl}-N-methyl[1,1′-biphenyl]-4-carboxamide] was tested, and the IC50 [4] was 100 to 500 nM.

`C[C@H](C(=O)Nc1ccc2[nH]ncc2c1)N(c1cc(Cl)ccc1F)S(=O)(=O)c1ccc(Cl)cc1` [Example 1311] was tested, and the IC50 [3] was > 500 nM.

“S-{3-[2-({[(4-chlorophenyl)sulfonyl]-2,5-difluoroanilino}methyl)phenoxy]propyl} ethanethioate [Example 1014]” was tested, and the IC50 [4] was > 500 nM.

`C[C@H](CCCNC(=O)C(C)(C)C)N(c1cc(Cl)ccc1Cl)S(=O)(=O)c1ccc(Cl)cc1` (stereo in doubt) [Example 1137, 4-chloro-N-(2,5-dichlorophenyl)-N-[4-[[(1,1-dimethylethyl)carbonyl]amino]-1-methylbutyl]benzenesulfonamide] gave an IC50 [2] of 100 to 500 nM.

For `O=S(=O)(c1ccc(Cl)cc1)N(Cc1ccccc1OCCCSc1ccccc1)c1cc(F)ccc1F` [Example 982, 4-chloro-N-(2,5-difluorophenyl)-N-{2-[3-(phenylsulfanyl)propoxy]benzyl}benzenesulfonamide], the IC50 [1] was > 500 nM.

With `CN(C)CCCOc1ccccc1CN(c1ccccc1)S(=O)(=O)c1cccc2c(N(C)C)cccc12` [Example 1085, 5-(dimethylamino)-N-{2-[3-(dimethylamino)propoxy]benzyl}-N-phenyl-1-naphthalenesulfonamide] the IC50 [2] was > 10000 nM.

For `CC1CS(=O)(=O)CCN1C(=O)CCCC[C@@H](C)N(c1cc(Cl)ccc1F)S(=O)(=O)c1ccc(Cl)cc1` (stereo partly shown) [Example 1273], the IC50 [7] was ≤ 25 nM.

With `C[C@H](CCCS(=O)(=O)Cl)N(c1cc(Cl)ccc1CO)S(=O)(=O)c1ccc(Cl)cc1` [Example 12] the IC50 [5] was ≤ 25 nM.

In the case of `C[C@H](C(=O)N[C@H](CO)Cc1ccccc1)N(c1cc(Cl)ccc1F)S(=O)(=O)c1ccc(Cl)cc1` [Example 1355], the IC50 [3] is reported as > 500 nM.

“2-((1R)-1-{[(4-chlorophenyl)sulfonyl]-2,5-difluoroanilino}ethyl)benzyl benzylcarbamate [Example 825]” gave an IC50 [4] of 100 to 500 nM.

For `CC(CCCN)N(c1cc(Cl)ccc1Cl)S(=O)(=O)c1ccc(Cl)cc1` (stereo not shown) [Example 1152], the IC50 [7] was 100 to 500 nM.

`O=S(=O)(c1ccc(Cl)cc1)n1c(-c2ccccc2OCCCN2CCCCC2)c(Cl)c2ccccc21` [Example 1043, 3-chloro-1-[(4-chlorophenyl)sulfonyl]-2-{2-[3-(1-piperidinyl)propoxy]phenyl}-1H-indole trifluoroacetate] was tested, and the IC50 [1] was > 500 nM.

`CC(C)Oc1c(NCCC[C@@H](C)N(c2cc(F)ccc2F)S(=O)(=O)c2ccc(Cl)cc2)c(=O)c1=O` [Example 1120, 4-chloro-N-(2,5-difluorophenyl)-N-[4-(2-isopropoxy-3,4-dioxo-1-cyclobutenyl)amine-1(R)-methylbutyl]benzenesulfonamide] showed an IC50 [7] of 25 to 50 nM.

In the case of `CC(=O)OCc1ccc(Cl)cc1N([C@H](C)CCCS(=O)(=O)O)S(=O)(=O)c1ccc(Cl)cc1` [Example 11], the IC50 [5] is reported as ≤ 25 nM.

With “ethyl (2E)-3-[2-({[(4-chlorophenyl)sulfonyl]anilino}methyl)phenyl]-2-propenoate [Example 971]” the IC50 [4] was > 500 nM.

Compound “N-{4-[2-(1-{[(4-chlorophenyl)sulfonyl]-2,5-difluoroanilino}ethyl)phenoxy]butyl}-N-ethylbenzamide [Example 767]” has an IC50 [6] of 100 to 500 nM.
